For assay [1], the target named is T1, hTRPML1 (Homo sapiens, UniProt Q9GZU1).
T1 construct: expressed in transfected cells
In words: Cellular TRPML1 assay (FLIPR, GCaMP6f calcium read-out). It counts as cell-based. The conditions noted are these: HEK T-REx/GCaMP6f/TRPML1 cells, FLIPR TETRA, kinetic response over 300 seconds; read-out: hTRPML1 FLIPR pEC50 (converted). The procedure: Buffers and reagents • PBS (D-PBS without calcium and magnesium; EuroClone) • Trypsin (Trypsin 0.05%, EDTA 0.02% in PBS; EuroClone) • DMSO (Sigma) • Ca^2+ free Tyrode's buffer: in-house solution (130 mM NaCl, 5 mM KCl, 1 mM MgCl2, 5 mM NaHCO3, 20 mM HEPES in water at pH 7.4; sterile filtered). • Opti-MEM (Gibco) • Agonist: ML-SA1 (Sigma); stock: 60 mM in DMSO, stored at −20° C. • Blocker: ML-SI3 (in house synthesis); stock: 20 mM in DMSO, stored at −20° C.
Cell line • The final clone for the TRPML1 assay is HEK T-REx/GCaMP6f/TRPML1. • GCaMP6f is a genetically encoded calcium indicator that is stably expressed in this cell line and used as a fluorescent read-out.
Cells are seeded at 15000 cells/well either in 25 µl/well of growth medium or in 20 μl/well of Optimem+0.5% FBS without selection antibiotics. Twenty-four hours later, cells are assayed for the response to various compounds using the Ca^2+ sensitive GCaMP6f protein stably expressed in the cells as readout.
The experiment is performed in a 384-well format according to the following procedures for either Ca^2+ free or Optimem conditions: • Ca^2+ free condition (in absence of extracellular Ca^2+): • 24 h after seeding, pre-incubate the cells at room temperature for about 10′. • Then remove the culture medium and replace it with 20 μL of Ca^2+ free Tyrode's buffer. • Start the experiment at the FLIPR^TETRA by injecting 10 μL/w of 3× concentrated test compounds and controls in Ca^2+ free Tyrode's buffer. Monitor the kinetic response over a period of 300 seconds. • Final DMSO concentration: 0.5% • Optimem condition (in presence of extracellular Ca^2+): • 24 h after seeding, pre-incubate the cells at room temperature for about 10′. • Start the experiment at the FLIPR^TETRA by injecting 10 μL/w of 3× concentrated test compounds and controls in Ca^2+ free Tyrode's buffer. Monitor the kinetic response over a period of 300 seconds. • Final DMSO concentration: 0.5%
Data from FLIPR^TETRA measurements are analyzed with the Genedata Screener© software.

The test system of assay [2] is autophagy reporter Rosella stably expressed in HeK293 cell line. In words: Autophagy assay (Rosella-LC3 reporter, imaging). The following applies: Homo sapiens; HeK293 cells with Rosella reporter (LC3 tag), 18 hours incubation, reference Torin-1; read-out: Autophagy pEC50 (converted). It is filed as cell-based. On the procedure: • Tyrode's buffer with 2 mM Ca^2+ in-house solution (130 mM NaCl, 5 mM KCl, 2 mM CaCl2), 1 mM MgCl2, 5 mM NaHCO3, 20 mM HEPES in water at pH 7.4; sterile filtered) • DMSO (Sigma) • Bis-benzimide H 33342 trihydrochloride (Hoechst 33342; Sigma-Aldrich) • Reference molecule (agonist): Torin-1, (#4247, Tocris) stock 1.2 mM in DMSO, stored at −20° C. Reporter of Autophagy and Cell line
Reporter Rosella: a fluorescent-based chimera constitutes by two fluorescent proteins, Green and Red variants, acting as a bimodal indicator of pH. The green fluorescent variant of the constructs is pH sensitive (pKa=6.9) while the red variant is not pH sensitive and it is used as reference. The reporter is fused to sequence for autophagosome localization (LC3 tag).
The reporter Rosella have been stably expressed in HeK293 cell line and used as read-out.
Experiments have been performed in 384 MTP poly-lysine coated well format. Cells have been seeded in 384-w at a density of 6000 cells/well in 25 μl/well complete growth medium without antibiotics. Twenty-four hours later, cells have been treated with compounds and incubated for further 18 hours. Then the cells have been imaged and assayed for the response to various compounds using the reporter for autophagy expressed in the cells as readout.
The experiments were performed in a 384-well format according to the following procedure: • 24 h after seeding, cells were incubated with compounds at the desired concentration, and with the reference molecule (agonist) Torin-1 at a top concentration of 1 μM (max signal), for 18 hours at 37° C. and 5% CO2. The final percentage of DMSO was 0.3% in all the conditions. • Then the culture medium was carefully removed to avoid cells detachment and to discard red phenol into the medium and that can interfere with the measurements. • Staining of the nuclei was obtained by incubating the cells with 8 μM/well of Hoechst 3342 in standard Tyrode's buffer for 20 min at RT • Then the cells were carefully washed two times with standard Tyrode's buffer • Finally, the samples were acquired by recording three fluorescence emission channels (green, red and blue) at 20× magnification and with at least 3-4 fields of view per well in an Operetta CLS microscope (PerkinElmer). • Image analysis was performed by using Harmony software (PerkinElmer). The image analysis involved the following steps: flat-field illumination correction, nuclei segmentation, cell segmentations and identification of vesicles/granules within the cytosol compartments and representing the autophagy vesicles. Measurements of signal intensity ratio (Green to Red) and number of autophagy vesicles per cells were used to obtain information on the effects of compounds on the autophagy flux. • Data from image analysis measurements were finally loaded and analyzed for normalization and fitting procedures in Genedata Screener© software.

From patent US20240254083A1, “HETEROCYCLIC TRPML1 AGONISTS AND USES THEREOF” (Libra Therapeutics, Inc., priority 2021, published 2024) come the findings set out here.

T1 sequence (Q9GZU1 whole entry): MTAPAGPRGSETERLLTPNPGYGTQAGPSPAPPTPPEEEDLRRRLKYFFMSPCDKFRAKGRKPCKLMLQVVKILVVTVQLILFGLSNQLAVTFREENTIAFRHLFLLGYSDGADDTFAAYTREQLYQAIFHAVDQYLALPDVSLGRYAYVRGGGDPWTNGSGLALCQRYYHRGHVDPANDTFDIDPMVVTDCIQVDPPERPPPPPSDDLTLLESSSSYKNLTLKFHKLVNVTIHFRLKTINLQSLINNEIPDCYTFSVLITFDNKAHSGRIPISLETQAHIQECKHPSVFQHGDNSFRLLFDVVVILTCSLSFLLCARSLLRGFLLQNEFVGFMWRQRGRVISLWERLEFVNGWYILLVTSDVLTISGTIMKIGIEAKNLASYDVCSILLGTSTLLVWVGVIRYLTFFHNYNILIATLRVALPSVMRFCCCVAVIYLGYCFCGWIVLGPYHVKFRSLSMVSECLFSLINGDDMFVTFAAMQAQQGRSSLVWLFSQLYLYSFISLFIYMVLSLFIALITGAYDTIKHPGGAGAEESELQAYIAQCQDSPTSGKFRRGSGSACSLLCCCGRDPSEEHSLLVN

Take `CN(C)S(=O)(=O)c1ccc(S(=O)(=O)Nc2cccc(F)c2N2CCC(Oc3ccccn3)CC2)cc1` [Example 8, N^1-(3-fluoro-2-(4-(pyridin-2-yloxy)piperidin-1-yl)phenyl)-N^4,N^4-dimethylbenzene-1,4-disulfonamide]: the EC50 in assay [1] and in assay [2] was less than 1 µM throughout.

As to `Cc1ccc(S(=O)(=O)Nc2c(C)cccc2N2CCN(C(=O)OC(C)(C)C)CC2)cc1` [Example 22, tert-butyl 4-(3-methyl-2-((4-methylphenyl)sulfonamido)phenyl)piperazine-1-carboxylate], the EC50 in assay [1] was 1 to 3.16 µM; in assay [2], greater than 3.16 µM.

`CC(C)(C)OC(=O)N1CCN(c2ccccc2NS(=O)(=O)c2ccc(C3CC3)cc2)CC1` [Example 23, tert-butyl 4-(2-((4-cyclopropylphenyl)sulfonamido)phenyl) piperazine-1-carboxylate]: the values for the EC50 in assay [1] and in assay [2] were 1 to 3.16 µM and greater than 3.16 µM, respectively.

Consider `CN(C)S(=O)(=O)c1ccc(C(=O)N(c2ccccc2N2CCC(Oc3ccccc3)CC2)C2CCCC2)cc1` [Example 1, N-cyclopentyl-4-(N,N-dimethylsulfamoyl)-N-(2-(4-phenoxypiperidin-1-yl)phenyl)benzamide], for which the EC50 in assay [1] is 1 to 3.16 µM; in assay [2], less than 1 µM.

Consider `O=S(=O)(Nc1cccc(F)c1N1CCC(Oc2ccccn2)CC1)c1ccc(C(F)(F)F)cc1` [Example 10, N-(3-fluoro-2-(4-(pyridin-2-yloxy)piperidin-1-yl)phenyl)-4-(trifluoromethyl)benzenesulfonamide], for which the EC50 in assay [1] and in assay [2] was 1 to 3.16 µM each time.

`CN(C)S(=O)(=O)c1ccc(S(=O)(=O)Nc2ccccc2N2CCCC(Oc3ccccc3)C2)cc1` (racemic) [Example 28, N^1,N^1-dimethyl-N^4-(2-(3-phenoxypiperidin-1-yl)phenyl)benzene-1,4-disulfonamide]: the results for the EC50 in assay [1] and in assay [2] were 1 to 3.16 µM and less than 1 µM, respectively.

For `CN(C)S(=O)(=O)c1ccc(S(=O)(=O)Nc2ccccc2N2CCCC(COc3ccccc3)C2)cc1` (racemic) [Example 34, N^1,N^1-dimethyl-N^4-(2-(3-(phenoxymethyl)piperidin-1-yl)phenyl)benzene-1,4-disulfonamide], the EC50 in assay [1] and in assay [2] was 1 to 3.16 µM each time.

On to `C#CCC1CN(c2ccccc2NS(=O)(=O)c2ccc(S(=O)(=O)N(C)C)cc2)CCO1` (stereo not shown) [Example 33, N^1,N^1-dimethyl-N^4-(2-(2-(prop-2-yn-1-yl)morpholino)phenyl)benzene-1,4-disulfonamide], for which the EC50 in assay [1] was greater than 3.16 µM; in assay [2] it was less than 1 µM.

Regarding `CN(C)S(=O)(=O)c1ccc(S(=O)(=O)Nc2ccccc2N2CCC(C)(Oc3ccccn3)CC2)cc1` [Example 40, N^1,N^1-dimethyl-N^4-(2-(4-methyl-4-(pyridin-2-yloxy)piperidin-1-yl)phenyl)benzene-1,4-disulfonamide], the EC50 in assay [1] was greater than 3.16 µM; in assay [2], less than 1 µM.

Take `CC(C)(C)OC(=O)N1CCN(c2ccccc2NS(=O)(=O)c2ccc(C(F)(F)F)cc2)CC1` [Example 17, tert-butyl 4-(2-((4-(trifluoromethyl)phenyl)sulfonamido)phenyl) piperazine-1-carboxylate]: the EC50 in assay [1] is 1 to 3.16 µM; in assay [2] it was less than 1 µM.

For the molecule `CN(C)S(=O)(=O)c1ccc(S(=O)(=O)Nc2ccccc2N2CCOC(C3CCC3)C2)cc1` (stereo not shown) [Example 32, N^1-(2-(2-cyclobutylmorpholino)phenyl)-N^4,N^4-dimethylbenzene-1,4-disulfonamide], the results for the EC50 in assay [1] and in assay [2] were greater than 3.16 µM and 1 to 3.16 µM, respectively.

On to `CCS(=O)(=O)c1ccc(S(=O)(=O)Nc2ccccc2N2CCC(Oc3ccccc3)CC2)cc1` [Example 6, 4-(ethylsulfonyl)-N-(2-(4-phenoxypiperidin-1-yl)phenyl)benzenesulfonamide], for which the EC50 in assay [1] and in assay [2] was greater than 3.16 µM in each case.

Consider `Cc1ccc(S(=O)(=O)Nc2ccccc2N2CCN(C(=O)OC(C)(C)C)CC2)cc1F` [Example 19, tert-butyl 4-(2-((3-fluoro-4-methylphenyl)sulfonamido)phenyl)piperazine-1-carboxylate], for which the EC50 in assay [1] was 1 to 3.16 µM; in assay [2], greater than 3.16 µM.

On to `CN(C)S(=O)(=O)c1ccc(S(=O)(=O)Nc2ccccc2N2CCCC(OCc3ccccc3)C2)cc1` (racemic) [Example 25, N^1-(2-(3-(benzyloxy)piperidin-1-yl)phenyl)-N^4,N^4-dimethylbenzene-1,4-disulfonamide], for which the EC50 in assay [1] and in assay [2] was 1 to 3.16 µM in each case.

In the case of `CN(C)S(=O)(=O)c1ccc(S(=O)(=O)Nc2ccccc2N2CCOC(C3CC3)C2)cc1` (stereo not shown) [Example 31, N^1-(2-(2-cyclopropylmorpholino)phenyl)-N^4, N^4-dimethylbenzene-1,4-disulfonamide], the EC50 in assay [1] and in assay [2] was greater than 3.16 µM throughout.

Consider `CN(C)S(=O)(=O)c1ccc(S(=O)(=O)Nc2ccccc2N2CCC(C)(c3ccccc3)CC2)cc1` [Example 38, N^1,N^1-dimethyl-N^4-(2-(4-methyl-4-phenylpiperidin-1-yl)phenyl)benzene-1,4-disulfonamide], for which the EC50 was 1 to 3.16 µM in assay [1] and less than 1 µM in assay [2].

Regarding `CN(C)S(=O)(=O)c1ccc(C(=O)N(c2ccccc2N2CCC(Oc3ccccc3)CC2)C2CCC2)cc1` [Example 2, N-cyclobutyl-4-(N,N-dimethylsulfamoyl)-N-(2-(4-phenoxypiperidin-1-yl)phenyl)benzamide], the figures for the EC50 in assay [1] and in assay [2] were 1 to 3.16 µM and less than 1 µM, respectively.
